Source: ChEMBL document CHEMBL5357033, “Discovery of Diverse Sesquiterpenoids from Crossiella cryophila through Genome Mining and NMR Tracking” (J Nat Prod, 2024)

Experiments:
Pseudomonas syringae = assay: Antimicrobial activity against Pseudomonas syringae ATCC-BAA-2502 assessed as reduction in microbial growth by broth microdilution method; assay type: functional
Xanthomonas oryzae = assay: Antimicrobial activity against Xanthomonas oryzae ATCC 35933 assessed as reduction in microbial growth by broth microdilution method; assay type: functional
Staphylococcus aureus [1] = assay: Antimicrobial activity against Staphylococcus aureus LV-B1 assessed as reduction in microbial growth by broth microdilution method; assay type: functional
Escherichia coli = assay: Antimicrobial activity against Escherichia coli CGMCC 1.3344 assessed as reduction in microbial growth by broth microdilution method; assay type: functional
Enterococcus = assay: Antimicrobial activity against Vancomycin-resistant Enterococci assessed as reduction in microbial growth by broth microdilution method; assay type: functional
Staphylococcus capitis = assay: Antimicrobial activity against Staphylococcus capitis W7 assessed as reduction in microbial growth by broth microdilution method; assay type: functional
Shigella sonnei = assay: Antimicrobial activity against Shigella sonnei ZD12 assessed as reduction in microbial growth by broth microdilution method; assay type: functional
SW480 = assay: Anticancer activity against human SW480 cells assessed as reduction in cell viability at 40 uM measured after 48 hrs by CCK-8 method relative to control; assay type: functional
Staphylococcus aureus [2] = assay: Antimicrobial activity against methicillin resistant Staphylococcus aureus assessed as reduction in microbial growth by broth microdilution method; assay type: functional
Bacillus subtilis = assay: Antimicrobial activity against Bacillus subtilis ATCC 6051 assessed as reduction in microbial growth by broth microdilution method; assay type: functional
RAW264.7 [3] = assay: Cytotoxicity against mouse RAW264.7 cells measured after 24hrs by CCK-8 method relative to control; assay type: toxicity, cell-based; design: concentration or dose not given beside the values; details: raw264.7, 24 h
RAW264.7 [4] = assay: Antiinflammatory activity in mouse RAW264.7 assessed as reduction in LPS-induced NO production incubated for 24 hrs by Griess method relative to control; assay type: functional; design: concentration or dose not given beside the values
HepG2 = assay: Anticancer activity against human HepG2 cells assessed as reduction in cell viability at 40 uM measured after 48 hrs by CCK-8 method relative to control; assay type: functional
Klebsiella pneumoniae = assay: Antimicrobial activity against Klebsiella pneumoniae W5 assessed as reduction in microbial growth by broth microdilution method; assay type: functional
MCF7 = assay: Anticancer activity against human MCF7 cells assessed as reduction in cell viability at 40 uM measured after 48 hrs by CCK-8 method relative to control; assay type: functional
Micrococcus luteus = assay: Antimicrobial activity against Micrococcus luteus ATCC 4685 assessed as reduction in microbial growth by broth microdilution method; assay type: functional
A549 = assay: Anticancer activity against human A549 cells assessed as reduction in cell viability at 40 uM measured after 48 hrs by CCK-8 method relative to control; assay type: functional
Paracidovorax avenae = assay: Antimicrobial activity against Acidovorax avenae ATCC 19307 assessed as reduction in microbial growth by broth microdilution method; assay type: functional
MDA-MB-231 = assay: Anticancer activity against human MDA-MB-231 cells assessed as reduction in cell viability at 40 uM measured after 48 hrs by CCK-8 method relative to control; assay type: functional

| SMILES | MIC (Pseudomonas syringae) | MIC (Xanthomonas oryzae) | MIC (Staphylococcus aureus [1]) | MIC (Escherichia coli) | MIC (Enterococcus) | MIC (Staphylococcus capitis) | MIC (Shigella sonnei) | Activity (SW480) | MIC (Staphylococcus aureus [2]) | MIC (Bacillus subtilis) | Activity (RAW264.7 [3]) | Activity (RAW264.7 [4]) | Activity (HepG2) | MIC (Klebsiella pneumoniae) | Activity (MCF7) | MIC (Micrococcus luteus) | Activity (A549) | MIC (Paracidovorax avenae) | Activity (MDA-MB-231) |
| --- | --- | --- | --- | --- | --- | --- | --- | --- | --- | --- | --- | --- | --- | --- | --- | --- | --- | --- | --- |
| CC1=C[C@@H]2[C@@H](C(C)C)CC[C@@](C)(O)[C@@H]2C[C@@H]1O | > 128 µg/mL | > 128 µg/mL | > 128 µg/mL | > 128 µg/mL | > 128 µg/mL | > 128 µg/mL | > 128 µg/mL | -7.85% | > 128 µg/mL | > 128 µg/mL | 82.75% | -1.33% | -1.38% | > 128 µg/mL | 6.01% | > 128 µg/mL | 0.28% | > 128 µg/mL | -7.21% |
| CC1(C)[C@H]2/C=C(/C=O)CC[C@@H]3O[C@@]3(C)CC[C@@H]21 | > 128 µg/mL | > 128 µg/mL | > 128 µg/mL | > 128 µg/mL | > 128 µg/mL | > 128 µg/mL | > 128 µg/mL | -21.6% | > 128 µg/mL | > 128 µg/mL | 81.51% | -2.46% | -4.51% | > 128 µg/mL | 16.05% | > 128 µg/mL | 2.4% | > 128 µg/mL | -2.33% |
| CC1=C[C@H]2[C@H](C(C)C)CC[C@@](C)(O)[C@H]2C[C@H]1O | > 128 µg/mL | > 128 µg/mL | > 128 µg/mL | > 128 µg/mL | > 128 µg/mL | > 128 µg/mL | > 128 µg/mL | 4.58% | > 128 µg/mL | > 128 µg/mL | 87.41% | -6.33% | -5.25% | > 128 µg/mL | 12.99% | > 128 µg/mL | 5.64% | > 128 µg/mL | -8.69% |
| CC1(C)[C@H]2/C=C(/CO)CC[C@@H]3O[C@@]3(C)CC[C@@H]21 | > 128 µg/mL | > 128 µg/mL | > 128 µg/mL | > 128 µg/mL | > 128 µg/mL | > 128 µg/mL | > 128 µg/mL | -7.55% | > 128 µg/mL | > 128 µg/mL | 8.25% | -6.95% | -11.68% | > 128 µg/mL | 14.53% | > 128 µg/mL | 13% | > 128 µg/mL | 4.47% |
| C/C1=C\CC/C(CO)=C\[C@H]2[C@H](C[C@H]1O)C2(C)C | > 128 µg/mL | > 128 µg/mL | > 128 µg/mL | > 128 µg/mL | > 128 µg/mL | > 128 µg/mL | > 128 µg/mL | 46.36% | > 128 µg/mL | > 128 µg/mL | 83.59% | -1.42% | 6.04% | > 128 µg/mL | 15.37% | > 128 µg/mL | 7.59% | > 128 µg/mL | 6.53% |
| CC1=C[C@@H]2[C@@H](C(C)C)CC[C@@](C)(O)[C@@H]2CC1 | > 128 µg/mL | > 128 µg/mL | > 128 µg/mL | > 128 µg/mL | > 128 µg/mL | > 128 µg/mL | > 128 µg/mL | 6.82% | > 128 µg/mL | > 128 µg/mL | 90.3% | -4.95% | 4.12% | > 128 µg/mL | 18.49% | > 128 µg/mL | 12.06% | > 128 µg/mL | 32.06% |
| C[C@H]1C[C@H](O)[C@@H]2[C@H]3[C@H]1OC(C)(C)[C@@H]3CC[C@@]2(C)O | > 128 µg/mL | > 128 µg/mL | > 128 µg/mL | > 128 µg/mL | > 128 µg/mL | > 128 µg/mL | > 128 µg/mL | -5.32% | > 128 µg/mL | > 128 µg/mL | 84.88% | 0.67% | -8.63% | > 128 µg/mL | 8.24% | > 128 µg/mL | 0.07% | > 128 µg/mL | 1.66% |
